Here are results for 20 molecules from patent publication US10752921B2, “Enzymes and methods for styrene synthesis” (Phytogene, Inc., priority 2012, dated 2020).

Substitutions are numbered along the chain they refer to. Numbers in names are those of the source. Entries after “also recorded” stand apart in the source; their conditions may differ.

First the molecules themselves.
T1: FDC1 (Saccharomyces cerevisiae, UniProt Q03034)
T1 construct: N-terminal 6xHis leader of vector pDEST17 (own knowledge of the vector); made in house; host or cells: E. coli BL21 (DE3)
T1 sequence (Q03034 1-503): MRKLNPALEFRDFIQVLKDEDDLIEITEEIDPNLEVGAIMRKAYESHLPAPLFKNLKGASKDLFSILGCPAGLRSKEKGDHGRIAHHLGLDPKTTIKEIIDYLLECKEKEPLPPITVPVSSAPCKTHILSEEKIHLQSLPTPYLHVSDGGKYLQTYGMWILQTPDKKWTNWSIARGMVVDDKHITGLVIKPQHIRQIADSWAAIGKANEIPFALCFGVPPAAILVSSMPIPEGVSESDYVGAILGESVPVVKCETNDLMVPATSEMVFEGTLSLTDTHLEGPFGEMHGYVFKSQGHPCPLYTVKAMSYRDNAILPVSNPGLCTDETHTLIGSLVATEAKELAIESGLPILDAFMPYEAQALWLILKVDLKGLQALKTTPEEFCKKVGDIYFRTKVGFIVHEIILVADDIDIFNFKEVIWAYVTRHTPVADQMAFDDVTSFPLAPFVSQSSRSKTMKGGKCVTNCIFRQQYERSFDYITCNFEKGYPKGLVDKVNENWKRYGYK

B1: K190C (protein, listed as Saccharomyces cerevisiae)
chain: T1 sequence (Q03034 1-503) with K190C
B2: K190L (protein, listed as Saccharomyces cerevisiae)
chain: T1 sequence (Q03034 1-503) with K190L
B3: R1751 (protein, listed as Saccharomyces cerevisiae)
chain: T1 sequence (Q03034 1-503) with R175I
B4: K190V (protein, listed as Saccharomyces cerevisiae)
chain: T1 sequence (Q03034 1-503) with K190V
B5: K190N (protein, listed as Saccharomyces cerevisiae)
chain: T1 sequence (Q03034 1-503) with K190N
B6: K190H (protein, listed as Saccharomyces cerevisiae)
chain: T1 sequence (Q03034 1-503) with K190H
B7: K190D (protein, listed as Saccharomyces cerevisiae)
chain: T1 sequence (Q03034 1-503) with K190D

The first experiment deals with styrene production. Briefly: Fermentation of E. coli with PAL2-FDC fusion with or without srpABC pump, Phe as substrate. The class given is cell-based. Particulars: control contains only the fusion of PAL2 and FDC. An excerpt:
Some bacteria have developed multiple mechanisms to adapt unfavorable conditions. For example, Pseudomonas strains have about three strategies for addressing organic solvent toxicity, i.e. modified membrane structure, active efflux pumps, and enzymatic detoxification. Here, a recombinant E. coli host expressing an efflux pump (called solvent-resistant-pump) was produced. The pump, a member of the ABC-transporter family, is composed of three subunits, srpA, periplasmic linker; srpB, inner membrane transporter; and srpC, out-membrane channels. The full-length of the srpABC pump sequence (˜6 kb) was cloned from the genomic DNA of P. putida. The clone was first inserted to pENTR vector with Zeocin resistance and then to E. coli expression vector pCONA-2-DEST with Kanamycin resistance.
Finally, the pump was transformed to the E. coli strain BL21 (DE3) containing the fusion of PAL2 and FDC which is resistant to Ampicillin. After the test expression of 5 clones in flasks, one clone was chosen for further experiment with fermenter. Fifty milliliters of overnight culture were inoculated in 1.5 L LB medium containing appropriate antibiotics. When cells reach an OD600˜0.8, 5 mM of IPTG was added to the culture for induction. […] Samples from the overnight fermentation (˜16 hrs) were taken and analyzed by HPLC in coupling with an Acclaim RSLC C18 column and detected at 280 nm. […]
For the molecule “ABC-transporter: solvent-resistant efflux pump srpABC cloned from P. putida, subunits srpA, srpB, srpC”, the “styrene production with ABC-transporter compared to control without” value was “significantly increased; also recorded: enhanced nearly four times”.

In a further experiment the target is T1, FDC1. The experiment is described as follows: Effect of metal ions on FDC1 activity. Type of experiment: biochemical. Particulars: 10 mM metal ion, 1.4 mM tCA, purified FDC1, 5 minutes at 30° C. As for the experimental part: After the reaction, 1 mL of propanol was added to the reaction mixtures to solubilize styrene. The experimental control used the same conditions except the reaction mixture contained no metal ions. The experimental negative control used the same conditions except the reaction mixture contained no substrate.
After the reaction, 1 mL of propanol was added to the reaction mixtures to solubilize styrene. The experimental control used the same conditions except the reaction mixture contained no metal ions or EDT A. The experimental negative control used the same conditions except the reaction mixture contained no substrate.
In the case of `[Ca+2].[Cl-].[Cl-]` [Ca^2+, CaCl2], the “effect of metal ions on FDC1 activity” value is “increased the activity of FDC1”.
Consider `[Cl][Fe]([Cl])[Cl]` [Fe^3+, FeCl3], for which the “effect of metal ions on FDC1 activity” value was “increased the activity of FDC1”.
In the case of `O=S(=O)([O-])[O-].[Mg+2]` [Mg^2+, MgSO4], the “effect of metal ions on FDC1 activity” value is “increased the activity of FDC1”.
Turning to `O=S(=O)([O-])[O-].[Zn+2]` [Zn^2+, ZnSO4], the “effect of metal ions on FDC1 activity” value is “increased the activity of FDC1”.

A further experiment relates to styrene production. The experiment is described as follows: Styrene production by FDC1 mutants from tCA (colorimetric screening, confirmed by HPLC). The class given is cell-based. Particulars: E. coli cells, tCA 1 g/L, 30° C. for 4 hours. How it is done:
Saturation mutagenesis allows the change of one amino acid to 19 other alternative amino acid residues. […] The codon NNK has 32-fold degeneracy and encodes all 20 amino acids without rare codons. The QuikChange PCR products were examined by agarose gel electrophoresis and then 15 μl of PCR products were digested with 1 μl Dpnl (New England Biolabs) at 37° C. for 4 hours to remove the template plasmid. Aliquots of (2 μl) digestive products were transformed into BL21-Gold (DE3) competent cells (STRATAgene, CA) and inoculated on Luria-Bertani (LB) agar plates containing kanamycin. The quality of the library by DNA sequencing was confirmed. The library covers 90% of mutagenesis (17 mutants out of 19). To cover 100% (19 out of 19 mutant), we screened 150 mutants for each site.
The transformants (Example II.2) were inoculated in 96-well plates (NUNC, Roskilde, Denmark) containing 100 μl LB broth per well and incubated at 37° C., overnight. The cultures were then mixed with equal amount of 50% glycerol and stored at −80° C. as the master plate. An aliquot of 10 μl culture was inoculated in 2 ml deep-well plates (USA scientific) with 1 ml TB broth per well and incubated at 37° C. until the OD600 reached 1.0. The cultures were then induced by 0.2 mM IPTG and incubated at 18° C. for 20 hours with shaking at 250 rpm.
Cells were harvested and suspended with 0.25 ml PBS buffer at pH 7.0 and the substrate (tCA) was added at a final concentration of 1 g/L. The culture was incubated at 30° C. for 4 hours and the volatile product styrene was collected by using 96 well STRATA-X® reversed phase plate containing 10 mg polymer based resin (Phenomenex) on top of the culture plate (FIG. 19). To avoid styrene vapor diffusion, 96-square well silicone sealing mats with pre-slit were used between 96-well culture plate and 96 well STRATA-X® reversed phase plate. The product was collected by 200 μl propanol for each well and the amount of product was measured by colorimetric method.
Various chemicals were tested as an indicator for styrene detection, including NBP (4-nitrobenzyl-pyridine) as a preferred indicator. Styrene was mixed with cytochrome P450 BM-3 in 50 mM phosphate buffer pH 8.0. The styrene oxidation reaction was started by adding 0.2 mM NADPH, and the reaction mixture was incubated at room temperature for 5 minutes with shaking. The NBP solution was added to the mixture and incubated at room temperature for further 5 minutes with shaking which gives white precipitate. The tube or plate containing reaction mixtures were heated at 70° C. for 30 minutes and chilled on ice for 5 minutes. After adding Dimethylformamide (150 μl) and 25 μl of 1M K2CO3, the reaction mixture gave blue color that can be measured spectrophotometrically at 600 nm immediately. The […] of NBP reacts with the oxirane ring of styrene oxide to yield a blue chromophore a blue color that can be monitored spectrophotometrically at 600 nm.
The mutants showing higher activity were confirmed by HPLC using an ACQUITY UPLC BEH C18 column (1.7-μm, 2.1×50-mm, Waters, USA). The samples were resolved in 30% acetonitrile (A) with an increasing concentration gradient of acetonitrile (B) for 1 min, 95%; then to 1 min, 30%; at a flow rate of 1 ml/min. UV absorption was monitored at 254-, 280-, and 310-nm. The changed amino acid residues in the mutants showing the higher activity were confirmed by DNA sequence.
With B1, the “amount of styrene compared to that of wild type (in words)” value was “significantly higher amount of styrene” and the “styrene produced compared to wild type” value came out at 3 times.
In the case of B2, the “amount of styrene compared to that of wild type (in words)” value was “significantly higher amount of styrene”.
For the molecule B3, the “amount of styrene compared to that of wild type (in words)” value is “significantly higher amount of styrene” and the “styrene produced compared to wild type” value is 1.5 times.
In the same order, the values of B4 are “significantly higher amount of styrene” and 3 times.
In the case of B5, the “amount of styrene compared to that of wild type (in words)” value is reported as “significantly higher amount of styrene”.
On the same count and under the same terms, under B6 stands “significantly higher amount of styrene”; under B7, “significantly higher amount of styrene”.

In the next experiment the target is T1, FDC1. Briefly: Substrate specificity of FDC1. The class given is biochemical. Particulars: 0.2 mM substrate, 0.5 mg purified FDC1, 5 minutes at 30° C., pH 6.5. How it is done: The reaction mixtures were then incubated for 5 minutes at 30° C. After the reaction 1 mL of propanol was added to the reaction mixtures to solubilize styrene. The experimental negative control used the same conditions except the reaction mixture contained no substrate.
For the molecule `COc1ccc(OC)c(C=CC(=O)O)c1` [2,5-dimethoxycinnamic acid], the “activity compared with that of tCA (relative activity)” value (“activity … (relative activity)” below) is “did not show any activity”.
With `O=C(O)C=Cc1ccccc1O` [2-hydroxycinnamic acid], the “activity … (relative activity)” value is given as “did not show any activity”.
In the case of `Cc1ccccc1C=CC(=O)O` [2-methylcinnamic acid], the “activity … (relative activity)” value is given as 35%.
Still for that read-out and setting: under `COc1ccc(C=CC(=O)O)cc1OC` [3,4-dimethoxycinnamic acid] stands “did not show any activity”; under `O=C(O)C=Cc1cccc(O)c1` [3-hydroxycinnamic acid], “did not show any activity”; under `O=C(O)C=Cc1ccc(O)cc1` [4-hydroxycinnamic acid], 68%.
`COc1cc(/C=C/C(=O)O)ccc1O` [ferulic acid]: the “activity … (relative activity)” value was determined as 57%.
As to `O=C(O)/C=C/c1ccccc1` [t-cinnamic acid, trans-cinnamic acid], the “activity … (relative activity)” value is listed as 100%.
